# Assay results as given in paper PMC8459971, “Evaluation of the hepatotoxicity of the novel GPR40 (FFAR1) agonist CPL207280 in the rat and monkey” (PLoS ONE, 2021).
# Several values for one entry are separate records, joined by “and”; a condition that tells them apart may be missing. Identical values can stand only once. Like-named read-outs stand apart in the source and are kept apart here.
# Assays:
# [1] = Stability in microsomes, human; type: in vitro ADME; conditions: for average DEG [%]: human microsomes, with cofactors
# Experimental: The final incubation volume was 500 μL. Two control compounds (verapamil and donepezil) were included for each microsomal species, along with the appropriate vehicle control. The reactions were terminated by transferring 50 μL of incubate to 100 μL methanol containing an internal standard (metoprolol) at appropriate time points (0, 10, 20, 40, 60, and 120 min for the test compound and 0, 5, 10, 20, 40, and 60 min for the control compounds). The termination plates were centrifuged at 4000 x g at 4°C for 30 min to precipitate the protein. The supernatants were then collected for analysis, and LC-MS/MS was used for detection purposes. The system consisted of an Acquity™ Binary Solvent Manager, Acquity™ 4-position heated column manager, 2777 Ultra High Pressure Autosampler, and a Xevo-TQ MS triple quadrupole mass spectrometer (Waters Ltd., Herts, UK). This process was carried out twice.
# [2] = Single-dose pharmacokinetics in rats (p.o. and i.v.); type: in vivo, rat; parameters: plasma conc: unit not given here; conditions: for plasma conc: single animals; for AUC: read-out: AUC
# OAT1 = molecular target: T1, OAT1 (Homo sapiens, UniProt Q4U2R8); assay: Uptake transporter inhibition assay, OAT1; conditions: for Accumulation (counts per minute; CPM) HEK293FT-MOCK / Accumulation (counts per minute; CPM) HEK293FT-OAT1: OAT1;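 further: HEK293FT cells expressing OAT1 or mock, uptake of radiolabeled probe substrate at 37 °C in HBSS pH 7.4 with test compound or solvent, cell lysate read by liquid scintillation counting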
# T1 sequence (Q4U2R8 1-563): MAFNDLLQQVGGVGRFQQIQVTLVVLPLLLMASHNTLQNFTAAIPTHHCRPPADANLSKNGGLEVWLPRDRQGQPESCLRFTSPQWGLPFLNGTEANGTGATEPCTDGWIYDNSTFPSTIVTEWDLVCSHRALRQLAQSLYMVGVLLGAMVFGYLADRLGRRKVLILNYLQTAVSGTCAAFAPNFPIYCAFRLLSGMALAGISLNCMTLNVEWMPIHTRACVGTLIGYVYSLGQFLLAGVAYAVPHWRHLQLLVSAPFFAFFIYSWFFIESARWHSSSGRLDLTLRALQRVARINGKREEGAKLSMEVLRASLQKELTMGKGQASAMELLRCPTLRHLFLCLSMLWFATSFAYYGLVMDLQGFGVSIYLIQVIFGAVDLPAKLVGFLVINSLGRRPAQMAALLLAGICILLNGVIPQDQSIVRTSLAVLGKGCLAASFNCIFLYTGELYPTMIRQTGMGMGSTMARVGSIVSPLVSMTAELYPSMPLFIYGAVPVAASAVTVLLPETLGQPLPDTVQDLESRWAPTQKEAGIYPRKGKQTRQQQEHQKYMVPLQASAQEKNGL
# Experimental: For the uptake transporter inhibition assay, cells were washed twice with 100 μL of the appropriate buffer (HK, pH 7.4) for OATP1B1, followed by HBSS (pH 7.4) for (NTCP, OAT1, OAT2v1, OATP1A2, and OATP1B3). Uptake experiments were carried out at 37 ± 1°C in 50 μL of the respective buffer containing the probe substrate and the compound or solvent. […] After the experiment, cells were washed twice with 100 μL of cold appropriate buffer and lysed with 50 μL of 0.1 M NaOH. Radiolabeled probe substrate transport was determined by measuring an aliquot (35 μL) from each well for liquid scintillation counting.
# BSEP = BSEP (Homo sapiens, UniProt O95342); assay: Vesicular transport inhibition assay, BSEP
# Sequence of BSEP (O95342 whole entry): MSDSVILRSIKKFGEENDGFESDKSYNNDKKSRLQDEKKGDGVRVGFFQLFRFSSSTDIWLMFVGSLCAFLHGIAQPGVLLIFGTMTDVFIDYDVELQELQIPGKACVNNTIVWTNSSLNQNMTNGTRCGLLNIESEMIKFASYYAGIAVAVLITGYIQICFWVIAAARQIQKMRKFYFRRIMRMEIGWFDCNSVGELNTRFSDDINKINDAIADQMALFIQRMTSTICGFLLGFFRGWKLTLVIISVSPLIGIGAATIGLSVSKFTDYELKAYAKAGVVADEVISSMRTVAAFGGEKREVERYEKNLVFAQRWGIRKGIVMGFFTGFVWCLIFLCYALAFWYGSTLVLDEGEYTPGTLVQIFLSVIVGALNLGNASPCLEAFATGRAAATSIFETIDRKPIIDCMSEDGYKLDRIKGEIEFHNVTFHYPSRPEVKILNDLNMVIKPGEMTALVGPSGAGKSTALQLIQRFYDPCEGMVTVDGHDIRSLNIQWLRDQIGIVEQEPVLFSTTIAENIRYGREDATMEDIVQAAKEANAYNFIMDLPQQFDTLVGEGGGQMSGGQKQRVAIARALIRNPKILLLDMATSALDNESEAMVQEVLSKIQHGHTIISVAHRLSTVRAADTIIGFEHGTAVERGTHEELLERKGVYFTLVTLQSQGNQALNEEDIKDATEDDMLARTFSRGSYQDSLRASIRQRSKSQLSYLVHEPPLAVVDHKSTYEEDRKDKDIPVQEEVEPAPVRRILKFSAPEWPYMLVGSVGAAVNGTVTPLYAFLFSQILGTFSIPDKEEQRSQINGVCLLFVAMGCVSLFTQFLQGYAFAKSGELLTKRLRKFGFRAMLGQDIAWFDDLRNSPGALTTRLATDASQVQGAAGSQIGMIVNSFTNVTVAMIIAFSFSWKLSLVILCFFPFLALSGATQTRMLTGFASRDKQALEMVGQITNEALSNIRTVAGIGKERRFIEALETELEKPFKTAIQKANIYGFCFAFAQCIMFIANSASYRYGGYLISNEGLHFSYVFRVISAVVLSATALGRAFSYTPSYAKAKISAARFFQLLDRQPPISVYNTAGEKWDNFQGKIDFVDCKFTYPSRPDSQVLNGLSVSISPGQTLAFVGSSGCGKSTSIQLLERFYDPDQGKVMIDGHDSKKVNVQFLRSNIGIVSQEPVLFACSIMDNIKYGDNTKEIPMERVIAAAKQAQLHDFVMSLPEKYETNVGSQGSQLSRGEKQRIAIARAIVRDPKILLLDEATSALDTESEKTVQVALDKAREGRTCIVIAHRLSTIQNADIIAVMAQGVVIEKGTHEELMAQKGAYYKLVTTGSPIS
# Experimental: In the vesicular transport inhibition assay (for BSEP, MRP) compounds were incubated with membrane vesicle preparations and the probe substrate. Incubations were carried out in the presence of 4 mM ATP or AMP to distinguish between transporter-mediated uptake and passive diffusion into the vesicles. For MRP2 and MRP3, reactions were carried out in the presence of 2 mM glutathione. Compounds were added to the reaction mixture in 0.75 μL of solvent (1% of the final incubation volume). […] Reactions were initiated by the addition of 25 μL of 12 mM MgATP (or 12 mM AMP in assay buffer as a background control) and preincubated separately. Reactions were quenched by the addition of 200 μL of ice-cold washing buffer and immediate filtration via glass fiber filters mounted on a 96-well plate (filter plate). The filters were washed (5 × 200 μL of ice-cold washing buffer), dried, and the amount of substrate inside the filtered vesicles was determined by liquid scintillation counting.
# [3] = Pharmacokinetics in mice, serum and liver concentrations; conditions: for liver conc / serum conc: mouse, 3 mg/kg p.o., individual animals
# Experimental: The mice were separated into four groups of 32 mice per group. […] At time point t = 0, animals received a single dose of the compounds orally. […] Four hours after drug administration, the animals received standard chow. […] After solubilization in extraction buffer, the solutions were shaken for 1 min and then centrifuged for 4 min (4000 x g).
# [4] = rat, plasma, iv, 3 mg/kg, rats, 3 mg/kg i.v.
# [5] = rat, plasma, po, 3 mg/kg, rats, 3 mg/kg p.o.
structure (smiles),measurement,setting,value
"Cc1cc(OCCCS(C)(=O)=O)cc(C)c1-c1cccc(COc2ccc3c(c2)OC[C@H]3CC(=O)O)c1 [TAK-875, fasiglifam, reference compound]",half-life at 3 μM,"[1]; Human microsomes, mean n = 2",3.5 h
same,microsomal CLint at 3 μM,"[1]; Human microsomes, mean n = 2",6.6 µL/min/mg
same,stability classification in microsomes,"[1]; based on the Clint values from different species, reference ranges by Cyprotex (human range given in legend)",stable compound
same,average DEG [%],[1]; 0 min,100.0%
same,average DEG [%],[1]; 20 min,110.6%
same,average DEG [%],[1]; 40 min,92.5%
same,average DEG [%],[1]; 60 min,85.1%
same,plasma conc,"[2]; rat, 3 mg/kg i.v., 0.08 h, 3 mg/kg",14090 and 15902 and 15227 and 5072
same,plasma conc,"[2]; rat, 3 mg/kg i.v., 0.5 h, 3 mg/kg",14558 and 12270 and 9258 and 3810
same,plasma conc,"[2]; rat, 3 mg/kg i.v., 1 h, 3 mg/kg",8089 and 7692 and 11373 and 4600
same,plasma conc,"[2]; rat, 3 mg/kg i.v., 2 h, 3 mg/kg",5223 and 7517 and 9423
same,plasma conc,"[2]; rat, 3 mg/kg i.v., 4 h, 3 mg/kg",3618 and 4301 and 3765
same,plasma conc,"[2]; rat, 3 mg/kg i.v., 7 h, 3 mg/kg",1974 and 2103 and 1928 and 4512
same,plasma conc,"[2]; rat, 3 mg/kg i.v., 12 h, 3 mg/kg",1056 and 769 and 1435
same,plasma conc,"[2]; rat, 3 mg/kg p.o., 0.5 h, 3 mg/kg",1176 and 692 and 854 and 1110
same,plasma conc,"[2]; rat, 3 mg/kg p.o., 1 h, 3 mg/kg",1699 and 1467 and 1460 and 1557
same,plasma conc,"[2]; rat, 3 mg/kg p.o., 2 h, 3 mg/kg",1890 and 1694 and 1808 and 1814
same,plasma conc,"[2]; rat, 3 mg/kg p.o., 4 h, 3 mg/kg",1443 and 1502 and 1610 and 1643
same,plasma conc,"[2]; rat, 3 mg/kg p.o., 8 h, 3 mg/kg",681 and 636 and 614 and 960 and 463
same,plasma conc,"[2]; rat, 3 mg/kg p.o., 24 h",0
same,Tmax,[2]; [4],0.083 h
same,Cmax,"[2]; rat, plasma, iv, 3 mg/kg, rats, 3 mg/kg i.v., n = 5, read-out: Cmax",15100 ± 916 ng/mL
same,AUC,[2]; [4],45200 ± 4680 ng·h/mL
same,bioavailability,"[2]; rat, plasma, oral, rats, 3 mg/kg p.o. vs i.v., read-out: F (bioavailability)",38%
same,Tmax,[2]; [5],2 h
same,AUC,[2]; [5],15800 ± 1510 ng·h/mL
same,Vd,"[2]; rat, plasma, rats, 3 mg/kg",0.25 ± 0.01 L/kg
same,k el,"[2]; rat, plasma, rats, 3 mg/kg",6.67e-05 s⁻¹
same,greater distribution volume (Vd) than CPL207280,"[2]; rats, 3 mg/kg",20%
same,IC50,OAT1,34.8 µM
same,Accumulation (counts per minute; CPM) HEK293FT-MOCK,OAT1; conc 0.10 µM,34 CPM and 47 CPM
same,Accumulation (counts per minute; CPM) HEK293FT-OAT1,OAT1; conc 0.10 µM,3883 CPM and 3843 CPM
same,Accumulation (counts per minute; CPM) HEK293FT-MOCK,OAT1; conc 0.30 µM,36 CPM and 29 CPM
same,Accumulation (counts per minute; CPM) HEK293FT-OAT1,OAT1; conc 0.30 µM,3654 CPM and 3608 CPM
same,Accumulation (counts per minute; CPM) HEK293FT-MOCK,OAT1; conc 1.00 µM,32 CPM and 37 CPM
same,Accumulation (counts per minute; CPM) HEK293FT-OAT1,OAT1; conc 1.00 µM,3568 CPM and 3527 CPM
same,Accumulation (counts per minute; CPM) HEK293FT-MOCK,OAT1; conc 3.00 µM,36 CPM and 37 CPM
same,Accumulation (counts per minute; CPM) HEK293FT-OAT1,OAT1; conc 3.00 µM,3226 CPM and 3417 CPM
same,Accumulation (counts per minute; CPM) HEK293FT-MOCK,OAT1; conc 10.00 µM,34 CPM and 39 CPM
same,Accumulation (counts per minute; CPM) HEK293FT-OAT1,OAT1; conc 10.00 µM,3074 CPM and 3122 CPM
same,Accumulation (counts per minute; CPM) HEK293FT-MOCK,OAT1; conc 30.00 µM,36 CPM and 39 CPM
same,Accumulation (counts per minute; CPM) HEK293FT-OAT1,OAT1; conc 30.00 µM,1739 CPM and 1807 CPM
same,Accumulation (counts per minute; CPM) HEK293FT-MOCK,OAT1; conc 100.00 µM,33 CPM and 31 CPM
same,Accumulation (counts per minute; CPM) HEK293FT-OAT1,OAT1; conc 100.00 µM,496 CPM and 493 CPM
same,Accumulation (counts per minute; CPM) HEK293-BSEP,BSEP; conc 0.41 µM,11727 CPM and 12245 CPM and 11981 CPM
same,Accumulation (counts per minute; CPM) HEK293-MOCK,BSEP; conc 0.41 µM,463 CPM and 375 CPM and 363 CPM
same,Accumulation (counts per minute; CPM) HEK293-BSEP,BSEP; conc 1.23 µM,11757 CPM and 12666 CPM and 12491 CPM
same,Accumulation (counts per minute; CPM) HEK293-MOCK,BSEP; conc 1.23 µM,465 CPM and 378 CPM and 379 CPM
same,Accumulation (counts per minute; CPM) HEK293-BSEP,BSEP; conc 3.70 µM,11540 CPM and 12190 CPM and 12485 CPM
same,Accumulation (counts per minute; CPM) HEK293-MOCK,BSEP; conc 3.70 µM,406 CPM and 443 CPM and 391 CPM
same,Accumulation (counts per minute; CPM) HEK293-BSEP,BSEP; conc 11.11 µM,11930 CPM and 12790 CPM and 12439 CPM
same,Accumulation (counts per minute; CPM) HEK293-MOCK,BSEP; conc 11.11 µM,450 CPM and 398 CPM and 437 CPM
same,Accumulation (counts per minute; CPM) HEK293-BSEP,BSEP; conc 33.33 µM,10294 CPM and 11069 CPM and 10674 CPM
same,Accumulation (counts per minute; CPM) HEK293-MOCK,BSEP; conc 33.33 µM,418 CPM and 356 CPM and 425 CPM
same,Accumulation (counts per minute; CPM) HEK293-BSEP,BSEP; conc 100 µM,6186 CPM and 6483 CPM and 6458 CPM
same,Accumulation (counts per minute; CPM) HEK293-MOCK,BSEP; conc 100 µM,375 CPM and 361 CPM and 372 CPM
same,distribution between liver and serum,"[3]; mice, single oral dose 3 mg/kg, 15 min to 24 h",tended to penetrate the liver more than serum
same,liver conc,"[3]; 0.5 h, 3 mg/kg",12066 and 9386 and 11708 and 12618
same,serum conc,"[3]; 0.5 h, 3 mg/kg",993.3 and 360.8 and 908.6 and 651.9
same,liver conc,"[3]; 1 h, 3 mg/kg",10596 and 9326 and 7020 and 7420
same,serum conc,"[3]; 1 h, 3 mg/kg",1072.6 and 672.7 and 566 and 819
same,liver conc,"[3]; 2 h, 3 mg/kg",6580 and 5322 and 5300 and 4227.4
same,liver conc,"[3]; 4 h, 3 mg/kg",3742.6 and 2509.2 and 2176.6 and 3530.4
same,liver conc,"[3]; 7 h, 3 mg/kg",1827.82 and 413.84 and 1236.2 and 1172.8
same,serum conc,"[3]; 7 h, 3 mg/kg",0 and 11.2 and 32.3 and 10
same,liver conc,"[3]; 12 h, 3 mg/kg",594.8 and 321.278 and 55.624 and 442.92
same,serum conc,"[3]; 12 h, 3 mg/kg",12 and 0 (2×) and 18.6
same,serum conc,[3]; 24 h,0
same,liver conc,"[3]; 24 h, 3 mg/kg",449.28 and 67.18 and 37.77 and 209.86
